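The compound was tested at five concentrations on cells cultured in 96-well plates, with a 48-hour exposure period. TGI is the concentration that stops growth completely.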
Tests used:
Experiment in all cases: growth of human tumour cells (NCI), 48 h
[1] = test system: 786-0 renal
[2] = test system: A498 renal
[3] = test system: A549 NSCLC
[4] = test system: ACHN renal
[5] = test system: BT-549 breast
[6] = test system: CAKI-1 renal
[7] = test system: COLO 205 colon
[8] = test system: DU-145 prostate
[9] = test system: EKVX NSCLC
[10] = test system: HCC-2998 colon
[11] = test system: HCT-116 colon
[12] = test system: HCT-15 colon
[13] = test system: HL-60(TB) leukemia
[14] = test system: HOP-62 NSCLC
[15] = test system: HOP-92 NSCLC
[16] = test system: HS 578T breast
[17] = test system: HT29 colon
[18] = test system: IGROV1 ovarian
[19] = test system: K-562 leukemia
[20] = test system: KM12 colon
[21] = test system: LOX IMVI melanoma
[22] = test system: MALME-3M melanoma
[23] = test system: MCF7 breast
[24] = test system: MDA-MB-231 breast
[25] = test system: MDA-MB-435
[26] = test system: MDA-N
[27] = test system: MOLT-4 leukemia
[28] = test system: NCI-H226 lung
[29] = test system: NCI-H23 lung
[30] = test system: NCI-H522 lung
[31] = test system: NCI/ADR-RES ovarian
[32] = test system: OVCAR-3 ovarian
[33] = test system: OVCAR-4 ovarian
[34] = test system: OVCAR-5 ovarian
[35] = test system: RPMI-8226 leukemia
[36] = test system: RXF 393 renal
[37] = test system: SF-268 CNS
[38] = test system: SF-295 CNS
[39] = test system: SF-539 CNS
[40] = test system: SK-MEL-2 melanoma
[41] = test system: SK-MEL-28 melanoma
[42] = test system: SK-MEL-5 melanoma
[43] = test system: SN12C renal
[44] = test system: SNB-19 CNS
[45] = test system: SNB-75 CNS
[46] = test system: SW-620 colon
[47] = test system: T-47D breast
[48] = test system: TK-10 renal
[49] = test system: U251 CNS
[50] = test system: UACC-257 melanoma
[51] = test system: UACC-62 melanoma
[52] = test system: UO-31 renal
[53] = test system: CCRF-CEM leukemia
[54] = test system: M14 melanoma
[55] = test system: NCI-H460 lung
[56] = test system: OVCAR-8 ovarian
[57] = test system: PC-3 prostate
[58] = test system: SK-OV-3 ovarian
[59] = test system: SR leukemia

CC(=O)O[C@H]1C(=O)[C@@]2(C)[C@H]([C@H](OC(=O)c3ccc(F)cc3)[C@]3(O)C[C@H](OC(=O)[C@H](O)[C@@H](NC(=O)c4ccccc4)c4ccccc4)C(C)=C1C3(C)C)[C@]1(OC(C)=O)CO[C@@H]1C[C@@H]2O
TGI [1]: > 25 µM
TGI [2]: > 6.73 µM
TGI [3]: > 25 µM
TGI [4]: > 25 µM
TGI [5]: > 25 µM
TGI [6]: > 25 µM
TGI [7]: > 25 µM
TGI [8]: 2.31 µM
TGI [9]: > 25 µM
TGI [10]: 0.174 µM
TGI [11]: 0.381 µM
TGI [12]: > 25 µM
TGI [13]: 0.0149 µM
TGI [14]: > 25 µM
TGI [15]: > 25 µM
TGI [16]: 0.0559 µM
TGI [17]: 3.85 µM
TGI [18]: > 25 µM
TGI [19]: 0.172 µM
TGI [20]: > 25 µM
TGI [21]: 5.56 µM
TGI [22]: > 25 µM
TGI [23]: > 25 µM
TGI [24]: > 25 µM
TGI [25]: 0.0049 µM
TGI [26]: 0.00496 µM
TGI [27]: 2.6 µM
TGI [28]: > 25 µM
TGI [29]: > 25 µM
TGI [30]: 0.585 µM
TGI [31]: > 25 µM
TGI [32]: 0.0437 µM
TGI [33]: > 25 µM
TGI [34]: > 11.5 µM
TGI [35]: 0.0195 µM
TGI [36]: 0.902 µM
TGI [37]: > 25 µM
TGI [38]: > 6.59 µM
TGI [39]: 0.0604 µM
TGI [40]: 9.73 µM
TGI [41]: > 25 µM
TGI [42]: > 9.33 µM
TGI [43]: > 25 µM
TGI [44]: > 25 µM
TGI [45]: 0.659 µM
TGI [46]: > 25 µM
TGI [47]: > 9.63 µM
TGI [48]: > 16.1 µM
TGI [49]: 0.738 µM
TGI [50]: > 25 µM
TGI [51]: > 25 µM
TGI [52]: > 25 µM

O=C1NCC(NC(=O)C(F)(F)F)c2c(Br)sc(Br)c21 (stereo not given)
TGI [1]: > 100 µM
TGI [2]: > 100 µM
TGI [3]: > 100 µM
TGI [4]: > 100 µM
TGI [5]: > 100 µM
TGI [6]: > 100 µM
TGI [53]: > 100 µM
TGI [7]: > 100 µM
TGI [8]: > 100 µM
TGI [9]: > 100 µM
TGI [10]: > 100 µM
TGI [11]: > 100 µM
TGI [12]: > 100 µM
TGI [14]: > 100 µM
TGI [15]: > 100 µM
TGI [17]: > 100 µM
TGI [18]: > 100 µM
TGI [19]: > 100 µM
TGI [20]: > 100 µM
TGI [21]: > 100 µM
TGI [54]: > 100 µM
TGI [22]: > 100 µM
TGI [23]: > 100 µM
TGI [24]: > 100 µM
TGI [25]: > 100 µM
TGI [26]: > 100 µM
TGI [27]: > 100 µM
TGI [28]: > 100 µM
TGI [29]: > 100 µM
TGI [55]: > 100 µM
TGI [30]: > 100 µM
TGI [31]: > 100 µM
TGI [32]: > 100 µM
TGI [33]: > 100 µM
TGI [34]: > 100 µM
TGI [56]: > 100 µM
TGI [57]: > 100 µM
TGI [35]: > 100 µM
TGI [36]: > 100 µM
TGI [37]: > 100 µM
TGI [38]: > 100 µM
TGI [39]: > 100 µM
TGI [40]: > 100 µM
TGI [41]: > 100 µM
TGI [42]: > 100 µM
TGI [58]: > 100 µM
TGI [43]: > 100 µM
TGI [44]: > 100 µM
TGI [45]: > 100 µM
TGI [59]: > 100 µM
TGI [46]: > 100 µM
TGI [47]: > 100 µM
TGI [48]: > 100 µM
TGI [49]: > 100 µM
TGI [50]: > 100 µM
TGI [51]: > 100 µM
TGI [52]: > 100 µM

O=C(O)C(SC1=NNC2(C(=O)N1)c1ccccc1-c1ccccc12)SC1=NNC2(C(=O)N1)c1ccccc1-c1ccccc12
TGI [1]: > 10 µM
TGI [2]: > 10 µM
TGI [3]: > 10 µM
TGI [4]: > 10 µM
TGI [5]: > 10 µM
TGI [6]: > 10 µM
TGI [53]: > 10 µM
TGI [7]: > 10 µM
TGI [8]: > 10 µM
TGI [9]: > 10 µM
TGI [10]: > 10 µM
TGI [11]: > 10 µM
TGI [12]: > 10 µM
TGI [13]: > 10 µM
TGI [14]: > 10 µM
TGI [15]: > 10 µM
TGI [16]: > 10 µM
TGI [17]: > 10 µM
TGI [18]: > 10 µM
TGI [19]: > 10 µM
TGI [20]: > 10 µM
TGI [21]: > 10 µM
TGI [54]: > 10 µM
TGI [22]: > 10 µM
TGI [23]: > 10 µM
TGI [24]: > 10 µM
TGI [25]: > 10 µM
TGI [26]: > 10 µM
TGI [27]: > 10 µM
TGI [28]: > 10 µM
TGI [29]: > 10 µM
TGI [55]: > 10 µM
TGI [30]: > 10 µM
TGI [31]: > 10 µM
TGI [32]: > 10 µM
TGI [33]: > 10 µM
TGI [34]: > 10 µM
TGI [56]: > 10 µM
TGI [57]: > 10 µM
TGI [35]: > 10 µM
TGI [36]: > 10 µM
TGI [37]: > 10 µM
TGI [38]: > 10 µM
TGI [39]: > 10 µM
TGI [40]: > 10 µM
TGI [41]: > 10 µM
TGI [42]: > 10 µM
TGI [58]: > 10 µM
TGI [43]: > 10 µM
TGI [44]: > 10 µM
TGI [45]: > 10 µM
TGI [46]: > 10 µM
TGI [47]: > 10 µM
TGI [48]: > 10 µM
TGI [49]: > 10 µM
TGI [50]: > 10 µM
TGI [51]: > 10 µM
TGI [52]: > 10 µM

C[C@@H]1S[C@H](c2ccccc2F)N2Cc3ccccc3N=C12
TGI [1]: 63.1 µM
TGI [3]: > 100 µM
TGI [4]: > 100 µM
TGI [5]: > 100 µM
TGI [6]: > 100 µM
TGI [53]: > 100 µM
TGI [7]: > 100 µM
TGI [8]: > 100 µM
TGI [9]: 95.9 µM
TGI [10]: 40.9 µM
TGI [11]: 42.2 µM
TGI [12]: > 100 µM
TGI [13]: 52.3 µM
TGI [14]: > 100 µM
TGI [15]: 65 µM
TGI [16]: > 100 µM
TGI [17]: 86.6 µM
TGI [18]: > 100 µM
TGI [19]: 65.9 µM
TGI [20]: > 100 µM
TGI [21]: 38.1 µM
TGI [54]: 48.7 µM
TGI [22]: 54.2 µM
TGI [23]: > 100 µM
TGI [24]: > 100 µM
TGI [25]: 88.5 µM
TGI [26]: 48.4 µM
TGI [27]: 46.7 µM
TGI [28]: > 100 µM
TGI [29]: > 100 µM
TGI [55]: > 100 µM
TGI [30]: 51.6 µM
TGI [31]: 99.3 µM
TGI [32]: > 100 µM
TGI [33]: 85.4 µM
TGI [34]: > 100 µM
TGI [56]: > 100 µM
TGI [57]: 97.1 µM
TGI [35]: 44.4 µM
TGI [36]: 83.9 µM
TGI [37]: > 100 µM
TGI [38]: > 100 µM
TGI [39]: > 100 µM
TGI [40]: 34.7 µM
TGI [41]: > 100 µM
TGI [42]: 32.5 µM
TGI [58]: 85.1 µM
TGI [43]: 42.2 µM
TGI [44]: > 100 µM
TGI [45]: 97.4 µM
TGI [59]: 36.9 µM
TGI [46]: > 100 µM
TGI [47]: 91.4 µM
TGI [48]: 94.2 µM
TGI [49]: > 100 µM
TGI [50]: 85.7 µM
TGI [51]: 54.8 µM
TGI [52]: 54 µM

Reference: PubChem BioAssay (NCI)
